In patent publication US20220175760A1, “PHARMACEUTICAL FORMULATIONS” (Janssen Pharmaceutica NV, priority 2019, published 2022):
In brackets after ≈: the same amount, converted by molar mass.

Experiments:
[1] = Crystallisation inhibition: XRPD of the precipitate from a supersaturated solution in FaSSIF + 1% PVPVA64; assay type: physicochemical; conditions: Compound A monohydrate in NMP (175 mg/mL) added to FaSSIF + 1% PVPVA64, 475.5 μg/mL (DS 16), 37° C., 2 hours, 300 rpm
Protocol: (§1) A 1% solution of PVPVA64 in FaSSIF was prepared by weighing 2.5 g of PVPVA64 in a volumetric flask and dissolving it in 250 mL FaSSIF at 37° C. The complete volume of the volumetric flask was transferred to a suitable Duran bottle. Afterwards, a highly concentrated solution of Compound A monohydrate (obtained according to Example 1) in NMP was prepared (175 mg/mL). At time zero, 679 μL of the highly concentrated Compound A solution (175 mg/mL) was added to the Duran bottle containing 250 mL FaSSIF+1% PVPVA64 (w/v). The added volume Compound A solution was chosen to obtain a theoretical final concentration of 475.5 μg/mL. This concentration results in a suitable degree of supersaturation of Compound A.
A precipitate formed immediately after adding the highly concentrated solution. The mixture was equilibrated at 37° C. for 2 hours while stirring at 300 rpm. After 2 hours, the precipitate was separated from the liquid phase by vacuum filtration. The precipitate was then analyzed with Powder X-Ray Diffraction to check if the API present in the formed precipitate was present as an amorphous or a crystalline form.
X-ray powder diffraction (XRPD) analysis was carried out on a PANalytical (Philips) X'PertPRO MPD diffractometer. The instrument is equipped with a Cu LFF X-ray tube. The compound was spread on a zero-background sample holder

[2] = Solubility of Compound A in FaSSIF; assay type: physicochemical; conditions: 37 °C
Protocol: as §1

- Form of the precipitate (amorphous or crystalline) by XRPD [1]: amorphous precipitate
- solubility [2]: 29.7 µg/mL (≈ 63.6 µM)
SMILES: O=C(Nc1ccnc(C(F)(F)F)c1)c1cnn(-c2cccc3c(=O)[nH]ccc23)c1C(F)(F)F [Compound A, 1-(1-oxo-1,2-dihydroisoquinolin-5-yl)-5-(trifluoromethyl)-N-(2-(trifluoromethyl)pyridin-4-yl)-1H-pyrazole-4-carboxamide]
